Measured values from ChEMBL document CHEMBL1201862, “PubChem BioAssay data set” (2004).
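How tested: cells in 96-well plates exposed to compound for 48 hours at five concentrations. Here, GI50 denotes the concentration required for 50% inhibition of growth.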 Activity calls are given as the source filed them. No stated cut-off is given here; in the data, active = GI50 up to about 1.1 µM and inactive = higher.

Tests used:
Test in all cases: DTP human tumour cell line panel, 48 h
LOX IMVI = system: LOX IMVI
COLO 205 = system: COLO 205
HCT-116 = system: HCT-116
MCF7 = system: MCF7
OVCAR-4 = system: OVCAR-4
SF-268 = system: SF-268
BT-549 = system: BT-549
NCI-H522 = system: NCI-H522
MDA-N = system: MDA-N
K562 = system: K562
SNB-19 = system: SNB-19
Malme-3M = system: Malme-3M
SK-MEL-2 = system: SK-MEL-2
HOP-62 = system: HOP-62
HCC 2998 = system: HCC 2998
EKVX = system: EKVX
CCRF-CEM = system: CCRF-CEM
OVCAR-8 = system: OVCAR-8
NCI-H226 = system: NCI-H226
PC-3 = system: PC-3

Measured: GI50

COC(=O)[C@H]1ON2O[C@H](OC3CCCC[C@@H]3c3ccccc3)C[C@@H]3CC[C@H]1[C@@]32C (stereo not given in full)
inactive: LOX IMVI > 100 µM | COLO 205 91.4 µM | HCT-116 79.1 µM | MCF7 65.6 µM | OVCAR-4 > 100 µM | SF-268 > 100 µM | BT-549 > 100 µM | NCI-H522 45.9 µM | MDA-N > 100 µM | K562 > 100 µM | SNB-19 > 100 µM | Malme-3M > 100 µM | SK-MEL-2 84.5 µM | HOP-62 > 100 µM | HCC 2998 > 100 µM | EKVX 92.9 µM | CCRF-CEM > 100 µM | OVCAR-8 > 100 µM | NCI-H226 49.4 µM | PC-3 47.6 µM

Cc1[nH]c(-c2ccccc2)c2nc(N(C)C)oc(=O)c12
inactive: LOX IMVI > 100 µM | COLO 205 > 100 µM | HCT-116 > 100 µM | MCF7 > 100 µM | OVCAR-4 > 100 µM | SF-268 > 100 µM | BT-549 > 100 µM | NCI-H522 > 100 µM | MDA-N > 100 µM | K562 > 100 µM | SNB-19 > 100 µM | Malme-3M > 100 µM | SK-MEL-2 > 100 µM | HOP-62 > 100 µM | HCC 2998 > 100 µM | EKVX > 100 µM | CCRF-CEM > 100 µM | OVCAR-8 > 100 µM | NCI-H226 > 100 µM | PC-3 > 100 µM
